Assay results published in US20240109930A1, “TRIAZOLYL-METHYL SUBSTITUTED ALPHA-D-GALACTOPYRANOSIDE DERIVATIVES” (Idorsia Pharmaceuticals Ltd, priority 2021, published 2024).

Tests used:
[1] = target: human Gal-1 (hGal-1) (Homo sapiens, UniProt P09382, C131S/C17S/C43S/C61S/C89S); experiment: Competitive binding assay: biotinylated hGal-1 binding to microplate-adsorbed asialofetuin (ASF); conditions: IC50 values from several measurements given as geomean
Method: (§1) The inhibitory activity of compounds is determined in competitive binding assays. This spectrophotometric assay measures the binding of biotinylated human Gal-3 (hGal-3) or human Gal-1 (hGal-1), respectively, to a microplate-adsorbed glycoprotein, asialofetuin (ASF) (Proc Natl Acad Sci USA. 2013 Mar. 26; 110(13):5052-7.). Alternatively, and preferably, a human Gal-1 version in which all six cysteines are substituted by serines may be used.
(§2) Briefly, compounds are serially diluted in DMSO (working dilutions). ASF-coated 384well plates are supplemented with 22.8 μL/well of biotinylated hGal-3 or hGal-1 in assay buffer (i.e. 300-1000 ng/mL biotinylated hGal-3 or hGal-1) to which 1.2 μL of compound working dilutions are added and mixed.
(§3) Plates are incubated for 3 hours at 4° C., then washed with cold assay buffer (3×50 uL), incubated for 1 hour with 25 μL/well of a streptavidin-peroxidase solution (diluted in assay buffer to 80 ng/mL) at 4° C., followed by further washing steps with assay buffer (3×50 uL). Finally, 25 μL/well of ABTS substrate is added.
(§4) The calculated IC50 values may fluctuate depending on the daily assay performance. Fluctuations of this kind are known to those skilled in the art. IC50 values from several measurements are given as geomean values.

[2] = target: human Gal-3 (hGal-3) (Homo sapiens (Human), UniProt P17931); experiment: Competitive binding assay: biotinylated hGal-3 binding to microplate-adsorbed asialofetuin (ASF); conditions: IC50 values from several measurements given as geomean
Chain of human Gal-3 (hGal-3) (P17931 whole entry): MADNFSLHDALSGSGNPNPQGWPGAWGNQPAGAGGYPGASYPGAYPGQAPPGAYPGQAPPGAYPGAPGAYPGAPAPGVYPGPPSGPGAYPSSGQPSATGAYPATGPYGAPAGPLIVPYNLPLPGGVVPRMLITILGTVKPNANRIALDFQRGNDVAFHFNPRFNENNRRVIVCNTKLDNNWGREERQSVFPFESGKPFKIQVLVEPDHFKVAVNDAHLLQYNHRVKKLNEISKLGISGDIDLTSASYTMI
Method: as §1, §2, §3, §4

| IC50 [1] | IC50 [2] | Compound |
| --- | --- | --- |
| 2900 nM | 40 nM | CO[C@@H]1[C@@H](n2cc(-c3ccc(Cl)c(F)c3F)nn2)[C@@H](O)[C@@H](CO)O[C@@H]1Cc1cn([C@H]2CCOC[C@H]2F)nn1 [Example 2.1.66.B, (2R,3R,4S,5R,6R)-4-(4-(4-chloro-2,3-difluorophenyl)-1H-1,2,3-triazol-1-yl)-6-((1-((3S,4S)-3-fluorotetrahydro-2H-pyran-4-yl)-1H-1,2,3-triazol-4-yl)methyl)-2-(hydroxymethyl)-5-methoxytetrahydro-2H-pyran-3-ol] |
| 2630 nM | 90 nM | CO[C@@H]1[C@@H](n2cc(-c3ccc(Cl)c(F)c3F)nn2)[C@@H](O)[C@@H](CO)O[C@@H]1Cn1cc(C2(O)CCC2)nn1 [Ex 2.2.31.] |
| 2460 nM | 40 nM | CO[C@@H]1[C@@H](n2cc(-c3ccc(C)c(F)c3F)nn2)[C@@H](O)[C@@H](CO)O[C@@H]1Cn1cc(C2(CO)CC2)nn1 [Ex 1.2.4.] |
| 4110 nM | 100 nM | CO[C@@H]1[C@@H](n2cc(-c3ccc(Br)c(F)c3F)nn2)[C@@H](O)[C@@H](CO)O[C@@H]1Cn1cc(C2(O)CCCC2)nn1 [Ex 4.2.33.] |
| 3940 nM | 60 nM | CO[C@@H]1[C@@H](n2cc(-c3ccc(Cl)c(F)c3F)nn2)[C@@H](O)[C@@H](CO)O[C@@H]1Cc1cn([C@@H]2COC[C@H]2F)nn1 (single isomer, unassigned) [Example 2.1.74.C, (2R,3R,4S,5R,6R)-4-(4-(4-chloro-2,3-difluorophenyl)-1H-1,2,3-triazol-1-yl)-6-((1-((3R*,4S*)-4-fluorotetrahydrofuran-3-yl)-1H-1,2,3-triazol-4-yl)methyl)-2-(hydroxymethyl)-5-methoxytetrahydro-2H-pyran-3-ol] |
| 830 nM | 20 nM | CO[C@@H]1[C@@H](n2cc(-c3ccc(Cl)c(F)c3F)nn2)[C@@H](O)[C@@H](CO)O[C@@H]1Cc1cn(C2(C(F)F)CC2)nn1 [Ex 2.1.51., (2R,3R,4S,5R,6R)-4-(4-(4-chloro-2,3-difluorophenyl)-1H-1,2,3-triazol-1-yl)-6-((1-(1-(difluoromethyl)cyclopropyl)-1H-1,2,3-triazol-4-yl)methyl)-2-(hydroxymethyl)-5-methoxytetrahydro-2H-pyran-3-ol] |
| 690 nM | 20 nM | CO[C@@H]1[C@@H](n2cc(-c3ccc(Cl)c(F)c3F)nn2)[C@@H](O)[C@@H](CO)O[C@@H]1Cc1cn(C2CC(F)C2)nn1 (single isomer, unassigned) [Example 2.1.60.A] |
| 2090 nM | 40 nM | CO[C@@H]1[C@@H](n2cc(-c3ccc(C)c(F)c3F)nn2)[C@@H](O)[C@@H](CO)O[C@@H]1Cc1cn(C2(CO)CCC2)nn1 [Ex 1.1.11.] |
| 240 nM | 40 nM | CO[C@@H]1[C@@H](n2cc(-c3ccc(F)c(F)c3F)nn2)[C@@H](O)[C@@H](CO)O[C@@H]1Cc1cn(C2(C(F)F)CC2)nn1 [Ex 3.1.51.] |
| 600 nM | 60 nM | CO[C@@H]1[C@@H](n2cc(-c3ccc(F)c(F)c3F)nn2)[C@@H](O)[C@@H](CO)O[C@@H]1Cc1cn(C2(CO)CCCC2)nn1 [Ex 3.1.5.] |
| 2930 nM | 40 nM | CO[C@@H]1[C@@H](n2cc(-c3ccc(Br)c(F)c3F)nn2)[C@@H](O)[C@@H](CO)O[C@@H]1Cc1cn(C2(CO)CC2)nn1 [Ex 4.1.4.] |
| 1710 nM | 50 nM | CO[C@@H]1[C@@H](n2cc(-c3ccc(Cl)c(F)c3F)nn2)[C@@H](O)[C@@H](CO)O[C@@H]1Cc1cn(C2(C)CC(F)(F)C2)nn1 [Ex 2.1.15.] |
| 2780 nM | 50 nM | CO[C@@H]1[C@@H](n2cc(-c3ccc(Cl)c(F)c3F)nn2)[C@@H](O)[C@@H](CO)O[C@@H]1Cc1cn(C2CC23CC3(F)F)nn1 (stereo partly drawn) [Ex 2.1.75., (2R,3R,4S,5R,6R)-4-(4-(4-chloro-2,3-difluorophenyl)-1H-1,2,3-triazol-1-yl)-6-((1-(4,4-difluorospiro[2.2]pentan-1-yl)-1H-1,2,3-triazol-4-yl)methyl)-2-(hydroxymethyl)-5-methoxytetrahydro-2H-pyran-3-ol] |
| 1200 nM | 30 nM | CO[C@@H]1[C@@H](n2cc(-c3ccc(Cl)c(F)c3F)nn2)[C@@H](O)[C@@H](CO)O[C@@H]1Cc1cn([C@]2(C)C[C@H](F)C2)nn1 [Ex 2.1.47.B] |
| 1190 nM | 40 nM | CO[C@@H]1[C@@H](n2cc(-c3ccc(Cl)c(F)c3F)nn2)[C@@H](O)[C@@H](CO)O[C@@H]1Cc1cn(C2CC(F)C2)nn1 (single isomer, unassigned) [Example 2.1.60.B] |
| 1090 nM | 20 nM | CO[C@@H]1[C@@H](n2cc(-c3ccc(Cl)c(F)c3F)nn2)[C@@H](O)[C@@H](CO)O[C@@H]1Cc1cn(C2(C)CC2)nn1 [Ex 2.1.23.] |
| 100 nM | 10 nM | CO[C@@H]1[C@@H](n2cc(-c3ccc(Cl)c(F)c3F)nn2)[C@@H](O)[C@@H](CO)O[C@@H]1Cc1cn(C2CCOCC2(F)F)nn1 (single isomer, unassigned) [Example 2.1.89.A] |
| 4430 nM | 30 nM | CO[C@@H]1[C@@H](n2cc(-c3ccc(Cl)c(F)c3F)nn2)[C@@H](O)[C@@H](CO)O[C@@H]1Cc1cn(C23CCC(O)(CC2)CC3)nn1 [Ex 2.1.8.] |
| 1100 nM | 30 nM | CO[C@@H]1[C@@H](n2cc(-c3ccc(Cl)c(F)c3F)nn2)[C@@H](O)[C@@H](CO)O[C@@H]1Cc1cn([C@]2(C)CCO[C@@H]2C)nn1 (single isomer, unassigned) [Example 2.1.68.A, (2R,3R,4S,5R,6R)-4-(4-(4-chloro-2,3-difluorophenyl)-1H-1,2,3-triazol-1-yl)-6-((1-((2R*,3R*)-2,3-dimethyltetrahydrofuran-3-yl)-1H-1,2,3-triazol-4-yl)methyl)-2-(hydroxymethyl)-5-methoxytetrahydro-2H-pyran-3-ol] |
| 480 nM | 50 nM | CO[C@@H]1[C@@H](n2cc(-c3ccc(Cl)c(F)c3F)nn2)[C@@H](O)[C@@H](CO)O[C@@H]1Cc1cn(C2(C(F)(F)F)CCOCC2)nn1 [Ex 2.1.72., (2R,3R,4S,5R,6R)-4-(4-(4-chloro-2,3-difluorophenyl)-1H-1,2,3-triazol-1-yl)-2-(hydroxymethyl)-5-methoxy-6-((1-(4-(trifluoromethyl)tetrahydro-2H-pyran-4-yl)-1H-1,2,3-triazol-4-yl)methyl)tetrahydro-2H-pyran-3-ol] |
| 1760 nM | 30 nM | CO[C@@H]1[C@@H](n2cc(-c3ccc(C)c(F)c3F)nn2)[C@@H](O)[C@@H](CO)O[C@@H]1Cc1cn(C2(C)CC(F)(F)C2)nn1 [Ex 1.1.15.] |
| 3990 nM | 70 nM | CO[C@@H]1[C@@H](n2cc(-c3ccc(C#N)c(F)c3F)nn2)[C@@H](O)[C@@H](CO)O[C@@H]1Cc1cn(C2(C)COC2)nn1 [Ex 5.1.6.] |
| 210 nM | 30 nM | CO[C@@H]1[C@@H](n2cc(-c3ccc(F)c(F)c3F)nn2)[C@@H](O)[C@@H](CO)O[C@@H]1Cc1cn(C2(C(F)F)CCC2)nn1 [Ex 3.1.43., (2R,3R,4S,5R,6R)-6-((1-(1-(difluoromethyl)cyclobutyl)-1H-1,2,3-triazol-4-yl)methyl)-2-(hydroxymethyl)-5-methoxy-4-(4-(2,3,4-trifluorophenyl)-1H-1,2,3-triazol-1-yl)tetrahydro-2H-pyran-3-ol] |
